Measurements published in US12474342B2, “Methods for treating cancer and the use of biomarkers as a predictor of clinical sensitivity to therapies” (CELGENE CORPORATION, priority 2016, dated 2025).
Where two headings read alike, the source gives them in different places.

Columns and labels:
[1] = tested on: KG-1a cells; assay: Anti-proliferation 72-hour CTG assay, KG-1a; format: cell-based; conditions: Homo sapiens, read-out: IC50 of the anti-proliferative effect
Description: (§1) A plethora of AML cell lines were treated with serial dilutions of Compound D. IC50 value of the anti-proliferation effect of Compound D (as determined in 72-hour CTG assays) in each cell line is summarized in Table 1.

[2] = tested on: NB-4 cells; assay: Anti-proliferation 72-hour CTG assay, NB-4; format: cell-based; conditions: Homo sapiens; NB-4, 72-hour CTG assay; read-out: IC50 of the anti-proliferative effect
Description: as §1

[3] = tested on: MOLM-13 cells; assay: Anti-proliferation CTG assay, MOLM-13; format: cell-based, human
Description: as §1
The effect of overexpression of GSPT1 on the anti-proliferative effect of Compound D and Compound E was determined in human histiocytic lymphoma cell line U937 and human leukemia cell line MOLM13. Treatment compounds (e.g., Compound D or Compound E) were titrated from 0.001 μM to 10 μM. Cell proliferation was measured by CellTiter-Glo cell viability assay at 48 hours after treatment. […] However, when exogenous GSPT1 was overproduced via the EF1α promoter, as shown in FIGS. 5A-5D, the anti-proliferative effect of Compound D and Compound E reduced.

[4] = tested on: OCI-AML2 cells; assay: Anti-proliferation 72-hour CTG assay, OCI-AML2; format: cell-based; conditions: Homo sapiens; OCI-AML2, 72-hour CTG assay; read-out: IC50 of the anti-proliferative effect
Description: as §1

[5] = tested on: OCI-AML3 cells; assay: Anti-proliferation CTG assay, OCI-AML3; format: cell-based, human
Description: as §1
The effect of depletion of GSPT1 on the anti-proliferative effect of compound Compound D and Compound E was also determined in human acute myelogenous leukemia cell lines AML and KG1. Cells were infected with lentiviral vectors expressing control shRNA, shGSPT1-1 or shGSPT1-3 for 7 days and then treated with DMSO, Compound D or Compound E in a titration from 0.0001 μM to 1 μM. Two days after treatment, cell proliferation was measured by CellTiter-Glo cell viability. […] Both shGSPT1-1 and shGSPT1-3 reduced the expression of GSPT1, eRF1, and slightly of CRBN.

[6] = tested on: nontumorigenic human hepatocellular cell line THLE-2; assay: Anti-proliferation, THLE-2; format: cell-based; conditions: THLE-2 (data not shown)
[7] = tested on: ML-2 cells; assay: Apoptosis (caspase 3/7 activation), ML-2; format: cell-based, human; conditions: for EC50: Homo sapiens, read-out: Compound D-induced Apoptosis EC50
[8] = tested on: KG-1 cells; assay: Apoptosis (caspase 3/7 activation), KG-1; format: cell-based, human; conditions: for EC50: Homo sapiens, read-out: Compound D-induced Apoptosis EC50
[9] = tested on: OCI-AML2 cells; assay: Apoptosis (caspase 3/7 activation), OCI-AML2; format: cell-based, human; conditions: for EC50: Homo sapiens, read-out: Compound D-induced Apoptosis EC50
[10] = tested on: AML-193 cells; assay: Apoptosis (caspase 3/7 activation), AML-193; format: cell-based, human; conditions: for EC50: Homo sapiens, read-out: Compound D-induced Apoptosis EC50
[11] = tested on: OCI-AML3 cells; assay: Apoptosis (caspase 3/7 activation), OCI-AML3; format: cell-based, human; conditions: OCI-AML3, 123 nM
[12] = tested on: PARP; assay: PARP cleavage, western blot, HNT-34; format: cell-based, human; conditions: HNT-34, 10 nM Compound D
Description: The time course of GSPT1 degradation was monitored by western blot analysis of HNT-34 AML cells and normal PBMCs (FIGS. 32A-32D) following incubation with Compound D (1, 10, and 100 nM).

[13] = tested on: ATF3, DDIT3, cleaved Caspases, cleaved PARP; assay: UPR and apoptosis pathway components in KG1 cells; format: cell-based, human; conditions: KG1, 200 nM
Description: Cells were treated with DMSO alone or 200 nM Compound D. After 2, 4, or 6 hours, the expression levels of various cellular components along UPR or apoptosis pathways were measured. […] Reduction of BIP indicates UPR.
Cells were treated with DMSO alone, 200 nM Compound D, or 200 nM Compound E. After 8 or 12 hours, the expression levels of various cellular components along UPR or apoptosis pathways were measured. […] Reduction of BIP indicates UPR.
To further investigate the timeline of cellular events upon Compound D treatment, KG1 cells were treated with DMSO alone or 200 nM Compound D. At 2, 4, 6, 8, 10, or 12 hours, the expression levels of various cellular components along ATF4 or apoptosis pathways were measured.

[14] = tested on: ATF3 and DDIT3 mRNA; assay: ATF3 and DDIT3 mRNA induction, HNT-34; format: cell-based, human
From the text: (§2) The kinetics of induction of mRNA for UPR factors ATF3 and DDIT3 in HNT-34 cells also strongly differed from that in PBMCs. […] This is also consistent with the reduced cytotoxicity observed for Compound D in normal adult lymphocytes as compared with tumor cells (data not shown).

[15] = tested on: ATF3 and DDIT3 mRNA; assay: ATF3 and DDIT3 mRNA induction, healthy PBMCs; format: cell-based, human; conditions: by 8 hours
From the text: as §2

[16] = molecular target: IKZF1 (Homo sapiens, UniProt Q13422+Q96SW2); conditions: NB4 cell line
[17] = molecular target: GSPT1 (Homo sapiens, UniProt P15170+Q96SW2); assay: GSPT1 degradation in NB4 cell line; format: cell-based; set-up: endogenous in cells; conditions: NB4 cell line
Chain of GSPT1 (P15170 1-637 isoform P15170-3): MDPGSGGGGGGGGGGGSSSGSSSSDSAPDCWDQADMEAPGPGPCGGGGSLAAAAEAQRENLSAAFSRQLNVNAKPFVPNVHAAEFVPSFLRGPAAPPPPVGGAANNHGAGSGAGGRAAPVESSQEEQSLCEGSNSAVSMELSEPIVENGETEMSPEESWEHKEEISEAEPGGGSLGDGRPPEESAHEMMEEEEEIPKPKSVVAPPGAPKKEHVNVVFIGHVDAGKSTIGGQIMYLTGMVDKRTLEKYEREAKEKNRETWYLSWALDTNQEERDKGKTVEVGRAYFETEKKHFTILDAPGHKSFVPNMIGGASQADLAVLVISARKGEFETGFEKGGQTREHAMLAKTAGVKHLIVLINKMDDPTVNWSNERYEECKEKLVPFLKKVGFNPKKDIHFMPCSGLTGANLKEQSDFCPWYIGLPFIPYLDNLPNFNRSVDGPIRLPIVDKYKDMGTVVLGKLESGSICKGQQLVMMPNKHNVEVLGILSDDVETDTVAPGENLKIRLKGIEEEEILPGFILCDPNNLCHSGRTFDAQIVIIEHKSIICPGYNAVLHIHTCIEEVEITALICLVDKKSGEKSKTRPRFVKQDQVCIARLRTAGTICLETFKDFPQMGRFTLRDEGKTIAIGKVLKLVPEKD
Chain of GSPT1 (Q96SW2 whole entry): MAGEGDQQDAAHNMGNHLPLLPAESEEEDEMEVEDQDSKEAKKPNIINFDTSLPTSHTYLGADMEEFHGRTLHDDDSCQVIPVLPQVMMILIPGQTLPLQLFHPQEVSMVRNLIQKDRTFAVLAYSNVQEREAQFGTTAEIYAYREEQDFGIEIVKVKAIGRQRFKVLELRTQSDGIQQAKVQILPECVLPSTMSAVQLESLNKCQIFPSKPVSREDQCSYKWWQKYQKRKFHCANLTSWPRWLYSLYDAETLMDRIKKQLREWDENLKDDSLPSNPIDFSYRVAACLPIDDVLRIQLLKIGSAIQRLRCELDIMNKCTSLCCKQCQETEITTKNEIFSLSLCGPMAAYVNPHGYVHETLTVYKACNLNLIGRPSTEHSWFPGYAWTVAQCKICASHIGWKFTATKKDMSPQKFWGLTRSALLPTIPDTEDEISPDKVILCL
Chain of GSPT1 (Q16531 whole entry partner): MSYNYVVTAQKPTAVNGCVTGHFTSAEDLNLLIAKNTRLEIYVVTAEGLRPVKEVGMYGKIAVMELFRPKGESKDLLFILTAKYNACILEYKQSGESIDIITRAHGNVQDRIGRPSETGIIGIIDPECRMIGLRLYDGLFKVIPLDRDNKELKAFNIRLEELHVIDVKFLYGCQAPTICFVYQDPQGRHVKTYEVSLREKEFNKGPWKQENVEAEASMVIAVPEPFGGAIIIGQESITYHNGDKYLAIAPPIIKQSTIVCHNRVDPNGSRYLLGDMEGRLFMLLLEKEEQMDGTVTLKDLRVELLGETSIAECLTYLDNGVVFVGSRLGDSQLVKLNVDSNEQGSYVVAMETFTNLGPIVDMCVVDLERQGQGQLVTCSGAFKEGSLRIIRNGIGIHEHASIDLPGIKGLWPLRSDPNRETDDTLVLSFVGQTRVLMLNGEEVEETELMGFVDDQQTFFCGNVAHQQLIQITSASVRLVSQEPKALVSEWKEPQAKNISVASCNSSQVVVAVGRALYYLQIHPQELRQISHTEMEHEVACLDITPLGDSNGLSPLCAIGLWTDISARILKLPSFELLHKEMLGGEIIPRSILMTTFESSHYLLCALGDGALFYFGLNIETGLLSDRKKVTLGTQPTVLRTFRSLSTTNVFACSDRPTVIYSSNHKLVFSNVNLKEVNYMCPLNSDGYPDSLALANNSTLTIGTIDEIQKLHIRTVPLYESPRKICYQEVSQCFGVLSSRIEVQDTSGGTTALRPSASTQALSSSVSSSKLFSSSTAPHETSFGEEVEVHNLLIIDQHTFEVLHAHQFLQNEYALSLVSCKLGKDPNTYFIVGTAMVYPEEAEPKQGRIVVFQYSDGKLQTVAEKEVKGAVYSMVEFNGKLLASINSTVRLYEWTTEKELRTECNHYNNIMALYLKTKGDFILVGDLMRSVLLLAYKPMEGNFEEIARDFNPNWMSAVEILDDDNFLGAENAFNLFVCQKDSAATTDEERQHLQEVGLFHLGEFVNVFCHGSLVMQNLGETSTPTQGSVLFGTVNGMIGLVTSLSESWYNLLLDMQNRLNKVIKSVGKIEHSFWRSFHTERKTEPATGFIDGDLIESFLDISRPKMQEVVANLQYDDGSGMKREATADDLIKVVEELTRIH

Chain of IKZF1 (Q13422 whole entry): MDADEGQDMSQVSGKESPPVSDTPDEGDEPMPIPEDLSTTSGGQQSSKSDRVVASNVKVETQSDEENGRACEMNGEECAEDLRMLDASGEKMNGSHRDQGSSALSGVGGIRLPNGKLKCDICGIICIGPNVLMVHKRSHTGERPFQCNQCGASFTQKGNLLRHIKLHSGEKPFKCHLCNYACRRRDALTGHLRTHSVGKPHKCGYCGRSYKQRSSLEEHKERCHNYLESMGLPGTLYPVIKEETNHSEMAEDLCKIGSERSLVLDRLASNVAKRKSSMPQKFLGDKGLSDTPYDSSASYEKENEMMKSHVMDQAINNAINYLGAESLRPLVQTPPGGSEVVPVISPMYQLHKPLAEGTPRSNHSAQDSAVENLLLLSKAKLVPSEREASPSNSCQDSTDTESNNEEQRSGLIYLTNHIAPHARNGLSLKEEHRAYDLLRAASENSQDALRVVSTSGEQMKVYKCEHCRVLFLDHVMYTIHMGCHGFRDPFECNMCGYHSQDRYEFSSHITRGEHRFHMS
Chain of IKZF1 (Q96SW2 whole entry): as the sequence (Q96SW2 whole entry) above
Chain of IKZF1 (Q16531 whole entry partner): as the sequence (Q16531 whole entry partner) above

O=C1CCC(N2Cc3cc(CNC(=O)C(F)(F)c4ccc(Cl)cc4)ccc3C2=O)C(=O)N1 (stereo not shown) [Compound D, 2-(4-chlorophenyl)-N-((2-(2,6-dioxopiperidin-3-yl)-1-oxoisoindolin-5-yl)methyl)-2,2-difluoroacetamide]
IC50 [1]: 21 nM
IC50 [2]: 17 nM
IC50 ([3]; Homo sapiens, MOLM-13, 72-hour CTG assay, read-out: IC50 of the anti-proliferative effect): 75 nM
anti-proliferative effect ([3]; MOLM13 CRBN -/- cells, 48 hours): completely abolished
cell proliferation (CellTiter-Glo) ([3]; MOLM13 parental cells, 0.001 μM to 10 μM, 48 hours): inhibited cell proliferation
IC50 [4]: 57 nM
cell proliferation (CellTiter-Glo) ([5]; AML3 parental or control shRNA cells, 0.0001 μM to 1 μM, two days): exhibited anti-proliferative effect, particularly at high concentration
IC50 ([5]; Homo sapiens, OCI-AML-3, OCI-AML3, 72-hour CTG assay, read-out: IC50 of the anti-proliferative effect): 3400 nM
IC50 [6]: ~10000 nM
EC50 ([7]; ML-2, 24 hr): 62 nM
EC50 ([7]; ML-2, 48 hr): 31 nM
EC50 ([7]; ML-2, 72 hr): 21 nM
EC50 ([7]; ML-2, 96 hr): 25 nM
Average Percent Increase in Apoptosis at 123 nM Compound D, Apoptosis (12 hr) ([7]; ML-2, 123 nM, 12 hr): 2%
Average Percent Increase in Apoptosis at 123 nM Compound D, Apoptosis (24 hr) ([7]; ML-2, 123 nM, 24 hr): 17%
Average Percent Increase in Apoptosis at 123 nM Compound D, Apoptosis (48 hr) ([7]; ML-2, 123 nM, 48 hr): 51%
EC50 ([8]; KG-1, 12 hr): 53 nM
EC50 ([8]; KG-1, 48 hr): 39 nM
EC50 ([8]; KG-1, 72 hr): 26 nM
EC50 ([8]; KG-1, 96 hr): 25 nM
average percent increase in apoptosis ([8]; KG-1, 41 nM, 24 hour time point): 11%
Average Percent Increase in Apoptosis at 123 nM Compound D, Apoptosis (12 hr) ([8]; KG-1, 123 nM, 12 hr): 2%
Average Percent Increase in Apoptosis at 123 nM Compound D, Apoptosis (24 hr) ([8]; KG-1, 123 nM, 24 hr): 16%
Average Percent Increase in Apoptosis at 123 nM Compound D, Apoptosis (48 hr) ([8]; KG-1, 123 nM, 48 hr): 42%
EC50 ([9]; OCI-AML2, 48 hr): 81 nM
EC50 ([9]; OCI-AML2, 72 hr): 41 nM
EC50 ([9]; OCI-AML2, 96 hr): 38 nM
Average Percent Increase in Apoptosis at 123 nM Compound D, Apoptosis (12 hr) ([9]; OCI-AML2, 123 nM, 12 hr): 0%
Average Percent Increase in Apoptosis at 123 nM Compound D, Apoptosis (24 hr) ([9]; OCI-AML2, 123 nM, 24 hr): 3%
Average Percent Increase in Apoptosis at 123 nM Compound D, Apoptosis (48 hr) ([9]; OCI-AML2, 123 nM, 48 hr): 33%
Average Percent Increase in Apoptosis at 123 nM Compound D, Apoptosis (12 hr) ([10]; AML-193, 123 nM, 12 hr): 0%
Average Percent Increase in Apoptosis at 123 nM Compound D, Apoptosis (24 hr) ([10]; AML-193, 123 nM, 24 hr): 5%
Average Percent Increase in Apoptosis at 123 nM Compound D, Apoptosis (48 hr) ([10]; AML-193, 123 nM, 48 hr): 40%
EC50 ([10]; AML-193, 48 hr): 89 nM
EC50 ([10]; AML-193, 72 hr): 47 nM
EC50 ([10]; AML-193, 96 hr): 60 nM
Average Percent Increase in Apoptosis at 123 nM Compound D, Apoptosis (12 hr) ([11]; 12 hr): 0%
Average Percent Increase in Apoptosis at 123 nM Compound D, Apoptosis (24 hr) ([11]; 24 hr): 1%
Average Percent Increase in Apoptosis at 123 nM Compound D, Apoptosis (48 hr) ([11]; 48 hr): 2%
time of PARP cleavage [12]: 24 h
time at which levels of apoptotic markers started to increase [13]: approximately 6 hrs
level of ATF3, DDIT3, cleaved Caspase-3, cleaved Caspase-8, and cleaved PARP ([13]; 8 or 12 hours): increased the level
time of induction of ATF3 and DDIT3 mRNA [14]: ≤ 8 h
induction of ATF3 or DDIT3 mRNA [15]: no induction
effect on IKZF1 level [16]: induced degradation
effect on GSPT1 level [17]: induced degradation
